Assay results taken from patent publication US7393662B2, “Human EPO mimetic hinge core mimetibodies, compositions, methods and uses” (Centocor, Inc., priority 2004, dated 2008).

How the values were obtained:
[1] = serum concentration by ELISA / half-life in normal mice; assay type: in vivo; conditions: serum concentrations by ELISA
Procedure: (§1) In vivo studies were done in normal mice to compare the half-life of EMP-Hinge core mimetibody to that of rHuEPO and to compare their effects on erythropoiesis.
The serum concentrations of both rHuEPO and EMP-Hinge core mimetibody were measured by ELISA.

[2] = system: cells that express the EPO receptor; assay: complement lysis of cells that express the EPO receptor (immune effector function); assay type: cell-based
Source text: It has been shown that mutation of two […] (L) residues, L234 & L235, in the IgG1 lower hinge region to alanine (A) will abrogate the ability of the immunoglobulin to mediate complement dependent cytotoxicity (CDC) and antibody dependant cellular cytotoxicity (ADCC) (Hezereh et al., 2001, J. Virol., vol. 75 (24), 12161-68). […] This may be due to the low number of receptors that are found on erythroid progenitor cells.

[3] = system: normal mice; assay: in vivo effects on erythropoiesis (hematocrit) in normal mice; conditions: for duration of response (elevated hematocrit) compared with rHuEPO / maximal hematocrit / maximal response compared with rHuEPO: normal mice, equal activity units / dosed equally
Source text: A specific, non-limiting, example of this invention is the EMP-hinge core mimetibody construct where V is the first several N-terminal amino acids of a naturally occurring HC or LC antibody, P is a single copy of the bioactive EMP-1 peptide and L is a tandem repeat of either Gly-Ser or Gly-Gly-Gly-Ser flexible linker, H is a hinge core region and CH2 & CH3 are of the IgG1 or IgG4 isotype subclass. It is thought that this structure will constrain the EMP-1 peptide, but allow sufficient flexibility such that the dimerization of the peptides as part of the assembled homodimer is stabilized. […] This construct is efficiently secreted from cells and appears to be properly folded; overcoming problems associated with 1st generation mimetibodies.
as §1

[4] = system: EPO dependent UT-7/EPO cell line; assay: in vitro bioactivity (cell proliferation/viability, MTS) assay in EPO dependent UT-7/EPO cells; assay type: cell-based, human; conditions: for activity/potency, fold greater than the EMP-1 peptide: viability 48 hours after treatment, molar basis; for activity compared with rHuEPO: in vitro cell proliferation assay
Procedure: The activity of EMP-Hinge core mimetibody was first tested in an in vitro bioactivity assay. For this assay, the EPO dependent UT-7/EPO cell line, derived from a patient with acute megakaryoblastic leukemia, was used (Komatsu et al., 1993, Blood, vol. 82 (2), 456-464). These cells undergo programmed cell death 48 to 72 hours after withdraw from media supplemented with rHuEPO. Cells that have been incubated in the absence of rHuEPO for 24 hours can be saved if treated with rHuEPO or an EPO agonist. EMP-Hinge core mimetibody was added to cells starved without rHuEPO and cell viability was determined 48 hours after treatment using the tetrazolium compound MTS (CellTiter 96 Aqueous One Solution, Promega) that is metabolized by living cells to yield a product with an absorbance that can be measured. […] In addition, these same cells were stimulated with EMP-Hinge core mimetibody and tyrosine phosphorylation patterns visualized by running cell lysate through a polyacrylamide gel.

[5] = molecular target: T1, EPO receptor (Homo sapiens, UniProt P19235); conditions: cited from earlier work
T1 sequence (P19235 25-508): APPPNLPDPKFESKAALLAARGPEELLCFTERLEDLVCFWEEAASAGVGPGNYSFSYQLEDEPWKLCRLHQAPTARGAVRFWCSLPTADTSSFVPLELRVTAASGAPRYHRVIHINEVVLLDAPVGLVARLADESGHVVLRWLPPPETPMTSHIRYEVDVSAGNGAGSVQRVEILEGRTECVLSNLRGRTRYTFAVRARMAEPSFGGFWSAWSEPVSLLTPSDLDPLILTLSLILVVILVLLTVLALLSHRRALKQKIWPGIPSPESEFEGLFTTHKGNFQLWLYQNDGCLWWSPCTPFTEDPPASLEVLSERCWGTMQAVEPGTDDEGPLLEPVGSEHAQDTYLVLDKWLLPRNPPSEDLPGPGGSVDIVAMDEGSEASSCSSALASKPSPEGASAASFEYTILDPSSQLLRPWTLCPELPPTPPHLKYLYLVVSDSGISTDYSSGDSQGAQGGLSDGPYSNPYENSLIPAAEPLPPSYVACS

[6] = in 50% serum; cited from earlier work
[7] = cited from earlier work
[8] = listed as EMP-Hinge core mimetibody

EMP-hinge core mimetibody: V (QIQ)-EMP-1 peptide-GS or GGGS linker-hinge core CPPCP-CH2-CH3 of IgG1 or IgG4; assembled homodimer
approximate half-life relative to rHuEPO [1]: at least several times
effector function associated effects [2]: no effector function associated affects have been observed
complement lysis of cells that express the EPO receptor ([2]; preliminary studies): does not mediate complement lysis
change in hematocrit (in vivo expansion of erythroid progenitors) ([3]; in vivo): significant increases in hematocrit
duration of response (elevated hematocrit) compared with rHuEPO [3]: elevated levels are maintained for a longer period
maximal hematocrit / maximal response compared with rHuEPO [3]: significantly higher
duration of response (elevated hematocrit) compared with rHuEPO [3, 8]: prolonged
maximal hematocrit / maximal response compared with rHuEPO [3, 8]: higher maximal response
potency, fold less than rHuEPO ([4]; UT-7/EPO cells, on a molar basis): 5 fold
activity/potency, fold greater than the EMP-1 peptide ([4]; UT-7/EPO cells): more than 500 fold
activity/potency, fold greater than the EMP-1 peptide ([4]; UT-7/EPO cells, listed as EMP-Hinge core mimetibody): 500 fold
activity compared with rHuEPO [4]: substantially similar
activity compared with rHuEPO [4, 8]: in the range of rHuEPO

GGTYSCHFGPLTWVCKPQGG [EMP-1]
activity, fold less than HuEPO [5]: 10,000 to 100,000 fold
ex-vivo half-life [6]: 8 h

erythropoietin: glycoprotein hormone of 165 amino acids and four carbohydrate chains, primary regulator of erythropoiesis
time at which peak serum levels are achieved ([7]; after subcutaneous administration): 5 to 24 h
circulating half-life ([7]; intravenously administered, patients with CRF): 3 to 4 h
detectable levels of plasma erythropoietin maintained ([7]; within the therapeutic dose range): at least 24 hours
